# Test results from PMC10046961, “High-Throughput Screening Assay for Detecting Drug-Induced Changes in Synchronized Neuronal Oscillations and Potential Seizure Risk Based on Ca^2+ Fluorescence Measurements in Human Induced Pluripotent Stem Cell (hiPSC)-Derived Neuronal 2D and 3D Cultures” (Cells, 2023).
# Like-named read-outs stand apart in the source and are kept apart here. Marks after values point to notes of the source that are not given here.
# How the values were obtained:
# [1] = tested on: hiPSC-derived neurons co-cultured with human primary astrocytes in 3D; assay: Ca2+ transient oscillation assay (FDSS), 3D spheroids; type: cell-based; conditions: for Area under the curve - 3D Mean / Peak Number—3D Mean / Peak amplitude - 3D Mean / Peak width - 3D Mean / Peak-to-peak interval - 3D Mean: 60 min
# From the text: (§1) In this study, we used cryopreserved excitatory neurons that were differentiated from human induced pluripotent stem cells (hiPSCs; Cat #: EX-SeV-CW50065) (Elixirgen Scientific, Inc., Baltimore, MD, USA). The hiPSCs used, namely, CW50065 were derived from a healthy person and distributed by the California Institute of Regenerative Medicine Human Induced Pluripotent Stem Cell Repository. Human iPSC-derived excitatory neurons were differentiated from CW50065 using a proprietary cocktail of differentiation-inducing factors called Quick-Neuron™ EX-SeV (Batch number: EX-SeV-CW50065-L; Elixirgen Scientific, Inc.), cryopreserved 3 days after differentiation induction and distributed. Human iPSC-derived excitatory neurons were recovered from cryopreservation and maintained essentially as instructed by the manufacturer.
# (§2) Cryopreserved human primary astrocytes (#N7805100, Thermo Fisher Scientific, Waltham, MA, USA) were recovered as instructed by the manufacturer and seeded in a 10 cm dish at the density of 2,000,000 cells. The culture was maintained using the Human Astrocytes Kit (#N7805200, Thermo Fisher Scientific) for 12 days. Half of the culture medium was replaced with fresh medium every 2–3 days during the culture period. These astrocytes were harvested using StemPro™ Accutase™ Cell Dissociation Reagent (#A1110501, Thermo Fisher Scientific) when they reached confluency. These cells were cryopreserved in STEM-CELLBANKER® GMP grade (ZENOGEN PHARMA, Kohriyama, Fukushima Japan) at the density of 2,000,000 cells per vial as working stocks for co-culture with neurons in 2D and 3D conditions described below. After a working stock was recovered, astrocytes were directly mixed with hiPSC-derived neurons for plating without further expansion.
# We used U-shaped-bottom 96-well plates (#174925, Thermo Fisher Scientific) without any prior coating to make a spheroid in each well. Neurons and astrocytes were seeded and maintained as described for 2D cultures, except for the following modifications. First, neurons and astrocytes were seeded in each well of the 96-well plates at the density of 8000 hiPSC neurons with 8000 human primary astrocytes (8000)/well (ratio 1:1). Second, when the differentiation of excitatory neurons was completed one week after seeding, cells were fed with BrainPhys^TM Neuronal Medium (#05793, […] Technologies, Vancouver, BC, Canada) supplemented with 2% SM1 Neuronal Supplement, 1% N2 Supplement-A, and 10% Neuron culture medium for 5 weeks.
# Cells maintained as spheroids (3D) in the U-shaped-bottom 96-well plates were transferred into 384-well spheroid plates (#4516, Merck, Corning, NY, USA) with 25 µL of the culture medium. A Ca^2+-indicating dye solution including […] was prepared using the EarlyTox™ Cardiotoxicity Kit (#R8211, Molecular Devices, LLC, San Jose, CA, USA) according to the manufacturer. Then, the same volume of the dye solution was dispensed into each well.
# (§3) Prior to the fluorescence measurements, all wells to be measured were treated with 0.04% dimethyl sulfoxide (DMSO) to stabilize the oscillation signal. The first recording started 10 min after the addition of DMSO for each plate for 20 min. The effects of the test compound were recorded again starting 60 min after the administration of compounds, for 20 min.
# Twenty-five compounds (Table 1) were first dissolved in either DMSO (most compounds) or distilled water depending on the compound, and further diluted with PBS to produce stock solutions concentrated 10-fold. Then, 5 μL of each compound solution was injected into each well using an automatic pipetting robot (#4505, ASSIST PLUS pipetting robot, Integra Biosciences Corp., Hudson, NH, USA), so that the final concentration of each compound was 1-fold nominal in the well.
# [2] = tested on: hiPSC-derived neurons co-cultured with human primary astrocytes in 2D; assay: Ca2+ transient oscillation assay (FDSS), 2D co-culture; type: cell-based; conditions: for activation at 0.11 µM / activation at 0.33 µM / activation at 1 µM / activation at 3 µM / activation at 0.37 µM / activation at 1.11 µM / activation at 3.33 µM / activation at 10 µM: Homo sapiens, 1 h; for activation at 0.11 µM / activation at 0.33 µM / activation at 1 µM / activation at 3 µM: 60 min
# From the text: as §1, §2
# Live neurons (hiPSC neurons) and human primary astrocytes were recovered from cryopreservation as described above and seeded in each well of 384-well plates at the density of 10,000 cells (HiPSC-cortical neurons) and human primary astrocytes at 2500 cells (ratio 4:1). These co-cultures were maintained under the medium conditions recommended by the manufacturer, namely Medium N(G2P), to complete the differentiation of excitatory neurons for the first week. […] Half of the culture medium was replaced with fresh medium every 3–4 days during the culture period.
# After the incubation, the culture medium containing Cal-520 was replaced with 50 μL of HBSS supplemented with 0.1 mM MgCl2, 2 mM CaCl2, 10 mM HEPES, and 10 mM glucose and incubated at 37 ℃ for 15 min.
# as §3
# Twenty-five compounds (Table 1) were first dissolved in either DMSO (most compounds) or distilled water depending on the compound, and further diluted with PBS to produce stock solutions concentrated 10-fold. […] The final concentration of DMSO was adjusted to 0.1%. Changes in the fluorescence intensity (FI) produced by Ca^2+ flux were measured at 37 °C for all wells of a 384-well plate simultaneously using the FDSS/µCell system (#C13299, Hamamatsu Photonics, Hamamatsu, Shizuoka, Japan). The excitation and the emission wavelengths were 470 nm and 540 nm, respectively. The recording duration was 20 min with a sampling frequency of 2 Hz for cells cultured under 2D conditions and 10 Hz for cells cultured under 3D conditions.
# [3] = read-out: Area under the curve - 2D Mean
# [4] = read-out: Peak amplitude - 2D Mean
# [5] = read-out: Peak-to-peak interval - 2D Mean
# [6] = symbol, based on % changes of baseline value in the peak number, concentration in parentheses in same cell
compound,measurement,setting,value
"C[C@]12N[C@H](Cc3ccccc31)c1ccccc12 [MK-801, Dizocilpine]",Area under the curve - 3D Mean,[1]; 0.11 µM,127.3 % change from baseline
same,Peak Number—3D Mean,[1]; 0.11 µM,−49.1 * % change from baseline
same,Peak amplitude - 3D Mean,[1]; 0.11 µM,104.7 % change from baseline
same,Peak width - 3D Mean,[1]; 0.11 µM,8.0 % change from baseline
same,Peak-to-peak interval - 3D Mean,[1]; 0.11 µM,76.1 % change from baseline
same,Area under the curve - 3D Mean,[1]; 0.33 µM,66.6 % change from baseline
same,Peak Number—3D Mean,[1]; 0.33 µM,−67.3 ** % change from baseline
same,Peak amplitude - 3D Mean,[1]; 0.33 µM,76.2 % change from baseline
same,Peak width - 3D Mean,[1]; 0.33 µM,−29.3 % change from baseline
same,Peak-to-peak interval - 3D Mean,[1]; 0.33 µM,66.4 % change from baseline
same,Area under the curve - 3D Mean,[1]; 1 µM,-66.9 % change from baseline
same,Peak Number—3D Mean,[1]; 1 µM,−97.2 ** % change from baseline
same,Peak amplitude - 3D Mean,[1]; 1 µM,−64.1 % change from baseline
same,Peak width - 3D Mean,[1]; 1 µM,−85.8 % change from baseline
same,Peak-to-peak interval - 3D Mean,[1]; 1 µM,−100.0 % change from baseline
same,Area under the curve - 3D Mean,[1]; 3 µM,41.0 % change from baseline
same,Peak Number—3D Mean,[1]; 3 µM,−84.8 ** % change from baseline
same,Peak amplitude - 3D Mean,[1]; 3 µM,67.2 % change from baseline
same,Peak width - 3D Mean,[1]; 3 µM,−36.8 % change from baseline
same,Peak-to-peak interval - 3D Mean,[1]; 3 µM,−100.0 % change from baseline
same,activation at 0.11 µM,[2]; [3],-35.7%
same,activation at 0.11 µM,[2]; read-out: Peak Number—2D Mean,-82.8%
same,activation at 0.11 µM,[2]; [4],-41.8%
same,activation at 0.11 µM,[2]; read-out: Peak width - 2D Mean,-3.2%
same,activation at 0.11 µM,[2]; [5],204%
same,activation at 0.33 µM,[2]; [3],-57%
same,activation at 0.33 µM,[2]; read-out: Peak Number—2D Mean,-90.4%
same,activation at 0.33 µM,[2]; [4],-63.6%
same,activation at 0.33 µM,[2]; read-out: Peak width - 2D Mean,-23.6%
same,activation at 0.33 µM,[2]; [5],3.6%
same,activation at 1 µM,[2]; [3],-57.4%
same,activation at 1 µM,[2]; read-out: Peak Number—2D Mean,-84.6%
same,activation at 1 µM,[2]; [4],-58.6%
same,activation at 1 µM,[2]; read-out: Peak width - 2D Mean,-32.8%
same,activation at 1 µM,[2]; [5],-57.4%
same,activation at 3 µM,[2]; [3],-79.8%
same,activation at 3 µM,[2]; read-out: Peak Number—2D Mean,-96.3%
same,activation at 3 µM,[2]; [4],-79.7%
same,activation at 3 µM,[2]; read-out: Peak width - 2D Mean,-70%
same,activation at 3 µM,[2]; [5],-100%
CN1CCc2cc3c(cc2[C@H]1[C@@H]1OC(=O)c2c1ccc1c2OCO1)OCO3 [Bicuculline],Area under the curve - 3D Mean,[1]; 0.37 µM,105.2 % change from baseline
same,Peak Number—3D Mean,[1]; 0.37 µM,−14.9 % change from baseline
same,Peak width - 3D Mean,[1]; 0.37 µM,−0.3 % change from baseline
same,Peak-to-peak interval - 3D Mean,[1]; 0.37 µM,7.6 % change from baseline
same,Area under the curve - 3D Mean,[1]; 1.11 µM,108.3 % change from baseline
same,Peak Number—3D Mean,[1]; 1.11 µM,−13.0 % change from baseline
same,Peak width - 3D Mean,[1]; 1.11 µM,5.7 % change from baseline
same,Peak-to-peak interval - 3D Mean,[1]; 1.11 µM,20.3 % change from baseline
same,Area under the curve - 3D Mean,[1]; 3.33 µM,107.4 % change from baseline
same,Peak Number—3D Mean,[1]; 3.33 µM,5.8 % change from baseline
same,Peak width - 3D Mean,[1]; 3.33 µM,2.7 % change from baseline
same,Peak-to-peak interval - 3D Mean,[1]; 3.33 µM,12.1 % change from baseline
same,Area under the curve - 3D Mean,[1]; 10 µM,115.2 % change from baseline
same,Peak Number—3D Mean,[1]; 10 µM,−5.8 % change from baseline
same,Peak width - 3D Mean,[1]; 10 µM,8.5 % change from baseline
same,Peak-to-peak interval - 3D Mean,[1]; 10 µM,9.4 % change from baseline
same,"effect on peak number of oscillations, in words",[1]; 3D-cultured,did not significantly change the peak number
same,Ca²⁺ Transient Peak Number (3D),[1]; [6],±
same,"effect on peak number / Ca2+ neuronal oscillations, in words",[2]; 2D format,significantly reduced peak number
same,activation at 0.37 µM,[2]; [3],15.8%
same,activation at 1.11 µM,[2]; [3],39.6%
same,activation at 3.33 µM,[2]; [3],1.6%
same,activation at 10 µM,[2]; [3],22.8%
same,activation at 0.37 µM,[2]; read-out: Peak Number—2D Mean,-29.4%
same,activation at 1.11 µM,[2]; read-out: Peak Number—2D Mean,-3.5%
same,activation at 3.33 µM,[2]; read-out: Peak Number—2D Mean,9.9%
same,activation at 10 µM,[2]; read-out: Peak Number—2D Mean,5.8%
same,activation at 0.37 µM,[2]; [4],-4.1%
same,activation at 1.11 µM,[2]; [4],9.3%
same,activation at 3.33 µM,[2]; [4],-14.1%
same,activation at 10 µM,[2]; [4],9.8%
same,activation at 0.37 µM,[2]; read-out: Peak width - 2D Mean,16.1%
same,activation at 1.11 µM,[2]; read-out: Peak width - 2D Mean,33%
same,activation at 3.33 µM,[2]; read-out: Peak width - 2D Mean,3.7%
same,activation at 10 µM,[2]; read-out: Peak width - 2D Mean,11.5%
same,activation at 0.37 µM,[2]; [5],-17.2%
same,activation at 1.11 µM,[2]; [5],8.2%
same,activation at 3.33 µM,[2]; [5],-26.1%
same,activation at 10 µM,[2]; [5],-13.2%
same,Ca²⁺ Transient Peak Number (2D),[2]; [6],±
